Experimental data: patent US10494360B2, “Inhibitors of indoleamine 2,3-dioxygenase” (NETHERLANDS TRANSLATIONAL RESEARCH CENTER B.V., priority 2016, dated 2019)
“And” between values parts separate entries of the source, which are not always exact repeats. Identical values can stand only once.

Molecular target: T1, IDO1 (Homo sapiens, UniProt P14902)
Assay: Biochemical IDO1 assay (NFK GreenScreen)
Design: Recombinant full-length IDO1 (Seegers, N., et al.) and all other assay components were diluted in IDO1 reaction buffer; made in house
Conditions: less active / most active isomer of the pair; assay not given
Protocol: Inhibition of IDO1 activity can be measured by determining the enzymatic conversion of L-tryptophan into N-formylkynurenine (NFK) in a reaction mixture containing IDO1 and test compound. The formation of NFK can be detected directly by, for instance, high-performance liquid chromatography (HPLC) methods, or by intrinsic fluorescence.
Compounds were serially diluted in dimethylsulfoxide (DMSO) and finally in IDO1 reaction buffer, consisting of 50 mM NaH2PO4, pH7.0, supplemented with 0.05% Tween-20 (cat. No. P7949; Sigma Aldrich) and 1% glycerol. Recombinant full-length IDO1 (Seegers, N., et al.) and all other assay components were diluted in IDO1 reaction buffer. […] Subsequently, 10 μl of 0.4 mM of the substrate L-tryptophan was added, i.e., the final concentration of L-tryptophan was 100 μM. The DMSO concentration in the assay was 0.3%. […] Incubation was continued for 60 min at room temperature. Then, 10 μl of NFK Green™ (NTRC, Oss, The Netherlands) was added, the plate was sealed, and the reaction was developed for 3 hours at 37° C. To determine the production of N-formyl kynurenine (NFK), the seal was removed and fluorescence was read on an EnVision multimode reader (Perkin Elmer, Waltham, Mass., USA). IC50 were calculated using XLfit™ software (ID Business Solutions, Ltd., Surrey, U.K.).

T1 sequence (P14902 whole entry, species assumed): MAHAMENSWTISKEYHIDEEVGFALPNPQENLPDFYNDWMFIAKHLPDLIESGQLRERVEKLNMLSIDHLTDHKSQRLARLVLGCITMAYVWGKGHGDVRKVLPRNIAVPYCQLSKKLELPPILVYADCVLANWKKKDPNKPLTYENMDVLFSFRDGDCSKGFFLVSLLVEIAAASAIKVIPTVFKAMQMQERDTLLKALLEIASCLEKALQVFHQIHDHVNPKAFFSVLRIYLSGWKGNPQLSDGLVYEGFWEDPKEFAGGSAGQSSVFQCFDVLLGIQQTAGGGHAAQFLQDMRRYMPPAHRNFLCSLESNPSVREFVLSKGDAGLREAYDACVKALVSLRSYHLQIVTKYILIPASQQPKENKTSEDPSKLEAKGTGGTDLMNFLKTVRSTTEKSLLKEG

SMILES	relative activity of separated isomers
C[C@@H](c1ccccc1)N1CC(=O)N(O)C1c1cccc(Br)c1 (single isomer, unassigned) [Example 139b]	most active isomer
C[C@@H](c1ccccc1)N1CC(=O)N(O)C1c1cccc(I)c1 (single isomer, unassigned) [Example 140a]	less active isomer
CC(c1c(F)cccc1F)N1CC(=O)N(O)C1c1cccc(Br)c1 (stereo not drawn) [Example 141a, 2-(3-Bromophenyl)-1-[1-(2,6-difluorophenyl)ethyl]-3-hydroxy-imidazolidin-4-one]	less active isomer

Same assay, conditions: recombinant full-length IDO1 25 nM, L-tryptophan 100 μM, NFK Green detection; read-out: IC50, inhibitory potency on IDO1

SMILES	IC50
C[C@@H](c1ccccc1)N1CC(=O)N(O)C1c1cccc(Br)c1 (single isomer, unassigned) [Example 139b]	≤ 1 µM
C[C@@H](c1ccccc1)N1CC(=O)N(O)C1c1cccc(I)c1 (single isomer, unassigned) [Example 140a]	≤ 5 µM and 1 to 5 µM
CC(c1c(F)cccc1F)N1CC(=O)N(O)C1c1cccc(Br)c1 (single isomer, unassigned) [Example 141b, 2-(3-Bromophenyl)-1-[1-(2,6-difluorophenyl)ethyl]-3-hydroxy-imidazolidin-4-one]	≤ 1 µM
Cc1cccc(F)c1C(=O)N1CC(=O)N(O)C1c1cccc(Br)c1 (stereo not drawn) [Example 88, 2-(3-Bromophenyl)-1-(2-fluoro-6-methyl-benzoyl)-3-hydroxy-imidazolidin-4-one]	≤ 5 µM and 1 to 5 µM
O=C1CN(C(=O)c2ncccc2F)C(c2cccc(Br)c2)N1O (stereo not drawn) [Example 89, 2-(3-Bromophenyl)-1-(3-fluoropyridine-2-carbonyl)-3-hydroxy-imidazolidin-4-one]	≤ 5 µM and 1 to 5 µM
O=C1CN(C(=O)c2cccs2)C(c2cccc(Br)c2)N1O (stereo not drawn) [Example 90, 2-(3-Bromophenyl)-3-hydroxy-1-(thiophene-2-carbonyl)imidazolidin-4-one]	≤ 5 µM and 1 to 5 µM
O=C1CN(C(=O)c2ccc(Oc3ccccc3)cc2)C(c2cccc(Br)c2)N1O (stereo not drawn) [Example 91, 2-(3-Bromophenyl)-3-hydroxy-1-(4-phenoxybenzoyl)imidazolidin-4-one]	≤ 5 µM and 1 to 5 µM
CC(C)c1cc(C(=O)N2CC(=O)N(O)C2c2cccc(Br)c2)no1 (stereo not drawn) [Example 96, 2-(3-Bromophenyl)-3-hydroxy-1-(5-isopropylisoxazole-3-carbonyl)imidazolidin-4-one]	≤ 5 µM and 1 to 5 µM
CS(=O)(=O)c1ccc(-c2ccc(C(=O)N3CC(=O)N(O)C3c3cccc(Br)c3)cc2)cc1 (stereo not drawn) [Example 97, 2-(3-Bromophenyl)-3-hydroxy-1-[4-(4-methylsulfonylphenyl)benzoyl]imidazolidin-4-one]	≤ 5 µM and 1 to 5 µM
CS(=O)(=O)N1CCC(C(=O)N2CC(=O)N(O)C2c2cccc(Br)c2)CC1 (stereo not drawn) [Example 100, 2-(3-Bromophenyl)-3-hydroxy-1-(1-methylsulfonylpiperidine-4-carbonyl)imidazolidin-4-one]	≤ 5 µM and 1 to 5 µM
NS(=O)(=O)N1CCC(C(=O)N2CC(=O)N(O)C2c2cccc(Br)c2)CC1 (stereo not drawn) [Example 101, 4-[2-(3-Bromophenyl)-3-hydroxy-4-oxo-imidazolidine-1-carbonyl]piperidine-1-sulfonamide]	≤ 5 µM and 1 to 5 µM
O=C1CN(C(=O)c2ccc3cn[nH]c3c2)C(c2cccc(Br)c2)N1O (stereo not drawn) [Example 103, 2-(3-Bromophenyl)-3-hydroxy-1-(1H-indazole-6-carbonyl)imidazolidin-4-one]	≤ 5 µM and 1 to 5 µM
NCC#Cc1cc(F)c(C(=O)N2CC(=O)N(O)C2c2cccc(Br)c2)c(F)c1 (stereo not drawn) [Example 109, 1-[4-(3-Aminoprop-1-ynyl)-2,6-difluoro-benzoyl]-2-(3-bromophenyl)-3-hydroxy-imidazolidin-4-one]	≤ 1 µM
CS(=O)(=O)NCC#Cc1cc(F)c(C(=O)N2CC(=O)N(O)C2c2cccc(Br)c2)c(F)c1 (stereo not drawn) [Example 110, N-[3-[4-[2-(3-bromophenyl)-3-hydroxy-4-oxo-imidazolidine-1-carbonyl]-3,5-difluoro-phenyl]prop-2-ynyl]methanesulfonamide]	≤ 1 µM
NS(=O)(=O)NCC#Cc1cc(F)c(C(=O)N2CC(=O)N(O)C2c2cccc(Br)c2)c(F)c1 (stereo not drawn) [Example 111, 2-(3-Bromophenyl)-1-[2,6-difluoro-4-[3-(sulfamoylamino)prop-1-ynyl]benzoyl]-3-hydroxy-4-oxo-imidazolidine]	≤ 1 µM
CC(C)(N)C#Cc1cc(F)c(C(=O)N2CC(=O)N(O)C2c2cccc(Br)c2)c(F)c1 (stereo not drawn) [Example 112, 1-[4-(3-Amino-3-methyl-but-1-ynyl)-2,6-difluoro-benzoyl]-2-(3-bromophenyl)-3-hydroxy-imidazolidin-4-one]	≤ 5 µM and 1 to 5 µM
CC(=O)NC(C)(C)C#Cc1cc(F)c(C(=O)N2CC(=O)N(O)C2c2cccc(Br)c2)c(F)c1 (stereo not drawn) [Example 113, N-[3-[4-[2-(3-bromophenyl)-3-hydroxy-4-oxo-imidazolidine-1-carbonyl]-3,5-difluoro-phenyl]-1,1-dimethyl-prop-2-ynyl]acetamide]	≤ 5 µM and 1 to 5 µM
O=C1CN(C(=O)c2c(F)cc(-c3ccccc3)cc2F)C(c2cccc(Br)c2)N1O (stereo not drawn) [Example 117, 2-(3-Bromophenyl)-1-(2,6-difluoro-4-phenyl-benzoyl)-3-hydroxy-imidazolidin-4-one]	≤ 1 µM
O=C1CN(C(=O)c2c(F)cc(-c3ccc(F)s3)cc2F)C(c2cccc(Br)c2)N1O (stereo not drawn) [Example 121, 2-(3-Bromophenyl)-1-[2,6-difluoro-4-(5-fluoro-2-thienyl)benzoyl]-3-hydroxy-imidazolidin-4-one]	≤ 5 µM and 1 to 5 µM
O=C1CN(C(=O)c2c(F)cc(-c3cccnc3)cc2F)C(c2cccc(Br)c2)N1O (stereo not drawn) [Example 123, 2-(3-Bromophenyl)-1-[2,6-difluoro-4-(3-pyridyl)benzoyl]-3-hydroxy-imidazolidin-4-one]	≤ 5 µM and 1 to 5 µM
O=C1CN(Cc2ccccc2F)C(c2ccc(F)c(Br)c2)N1O (stereo not drawn) [Example 126, 2-(3-Bromo-4-fluoro-phenyl)-1-[(2-fluorophenyl)methyl]-3-hydroxy-imidazolidin-4-one]	≤ 1 µM
CC(C)(C#Cc1cc(F)c(C(=O)N2CC(=O)N(O)C2c2cccc(Br)c2)c(F)c1)NS(N)(=O)=O (stereo not drawn) [Example 128, 2-(3-Bromophenyl)-1-[2,6-difluoro-4-[3-methyl-3-(sulfamoylamino)but-1-ynyl]benzoyl]-3-hydroxy-4-oxo-imidazolidine]	≤ 1 µM
CS(=O)(=O)NCc1cc(F)c(C(=O)N2CC(=O)N(O)C2c2cccc(Br)c2)c(F)c1 (stereo not drawn) [Example 130, N-[[4-[2-(3-bromophenyl)-3-hydroxy-4-oxo-imidazolidine-1-carbonyl]-3,5-difluoro-phenyl]methyl]methanesulfonamide]	≤ 1 µM
O=C1CN(C(=O)c2c(F)cc(CCC3CCCCC3)cc2F)C(c2cccc(Br)c2)N1O (stereo not drawn) [Example 131, 2-(3-Bromophenyl)-1-[4-(2-cyclohexylethyl)-2,6-difluoro-benzoyl]-3-hydroxy-imidazolidin-4-one]	≤ 5 µM and 1 to 5 µM
NS(=O)(=O)NCCCc1cc(F)c(C(=O)N2CC(=O)N(O)C2c2cccc(Br)c2)c(F)c1 (stereo not drawn) [Example 132, 2-(3-Bromophenyl)-1-[2,6-difluoro-4-[3-(sulfamoylamino)propyl]benzoyl]-3-hydroxy-4-oxo-imidazolidine]	≤ 1 µM
O=C1CN(C(=O)c2c(F)cc(N3CCC3)cc2F)C(c2cccc(Br)c2)N1O (stereo not drawn) [Example 134, 1-[4-(Azetidin-1-yl)-2,6-difluoro-benzoyl]-2-(3-bromophenyl)-3-hydroxy-imidazolidin-4-one]	≤ 5 µM and 1 to 5 µM
CN(CCO)c1cc(F)c(C(=O)N2CC(=O)N(O)C2c2cccc(Br)c2)c(F)c1 (stereo not drawn) [Example 135, 2-(3-Bromophenyl)-1-[2,6-difluoro-4-[2-hydroxyethyl(methyl)amino]benzoyl]-3-hydroxy-imidazolidin-4-one]	≤ 5 µM and 1 to 5 µM

Molecular target: T1, IDO1
Assay: Cell-based assay for IDO1 in interferon-γ stimulated A-375 melanoma cells
Conditions: interferon-γ stimulation, 48 hours, read-out: IC50, cell-based IDO1 (NFK levels)
Protocol: The biological activity of IDO1 inhibitors can be measured by applying above detection methods to cells that are treated with test compound. The expression of IDO1 can be induced in many different cell lines by stimulation with IFNγ (Takikawa, O., et al., J. Biol. Chem. 263: 2041; 1988; Seegers, et al.), or IDO1 can be expressed in cells that lack endogenous IDO1 by transfection of an expression vector containing IDO1 cDNA.
A-375 melanoma cells were purchased from LGC Standards GmbH (Wesel, Germany) and cultured in DMEM tissue culture medium (Life Technologies, Bleiswijk, The Netherlands), supplemented with 10% (v/v) bovine calf serum. Compounds were dissolved in DMSO and diluted in DMEM. Final DMSO concentration in the assay was 0.4% (v/v). Eight thousand cells per well in 35 μl were seeded in a black 384-well tissue plate (cat. No. 781086; Greiner Bio-One GmbH, Frickenhausen, Germany) and allowed to adhere by incubation at 37° C., 95% humidity, and 5% CO2 overnight. Then, 5 μl of compound solution was added to the cells 1 hour prior to stimulation with 5 μl of 500 ng/ml interferon-γ (R&D Systems, Minneapolis, Minn., USA) diluted in DMEM medium. At the same time, 5 μl of L-tryptophan in 20 mM Hepes buffer pH 7.4 was added. Incubation was continued for 48 hours. To determine NFK levels, 12 μl NFK Green™ (NTRC, Oss, The Netherlands) was added to each well, and the plate was sealed and incubated for 4 hours at 37° C. Fluorescence was measured on an EnVision multimode reader (Perkin Elmer, Waltham, Mass., USA). IC50 were calculated using XLfit™ software (ID Business Solutions, Ltd., Surrey, U.K.).

SMILES	IC50
C[C@@H](c1ccccc1)N1CC(=O)N(O)C1c1cccc(Br)c1 (single isomer, unassigned) [Example 139b]	< 5 µM
C[C@@H](c1ccccc1)N1CC(=O)N(O)C1c1cccc(I)c1 (single isomer, unassigned) [Example 140a]	< 5 µM
CC(c1c(F)cccc1F)N1CC(=O)N(O)C1c1cccc(Br)c1 (single isomer, unassigned) [Example 141b, 2-(3-Bromophenyl)-1-[1-(2,6-difluorophenyl)ethyl]-3-hydroxy-imidazolidin-4-one]	< 5 µM
